Data reported in patent US5428021A, “Human leukocyte elastase (HLE) inhibitors, and related pharmaceutical compositions and methods of use” (SRI International, priority 1994, dated 1995).
pKi: −log10 of the molar value.

Assays:
Assay type in all cases: biochemical
[1] = molecular target: T1, Elastase (human neutrophil (HLE)) (Homo sapiens, UniProt P08246); assay: Inhibition of human leukocyte (neutrophil) elastase, progress curve method (methoxy-Suc-Ala-Ala-Pro-Val-pNA substrate); settings: for pKi / koff / kon: 25 mM HEPES, 1M NaCl, 0.1% BRIJ 35, pH 6.5, 25° C.; for kinact/KI: pH 6.5, read-out: kobs /[I] Enzyme; for kobs /[I] HLE / kobs /[I] Enzyme: relative selectivity, HLE over HLE
T1 construct: purchased Calbiochem
T1 sequence (P08246 30-267): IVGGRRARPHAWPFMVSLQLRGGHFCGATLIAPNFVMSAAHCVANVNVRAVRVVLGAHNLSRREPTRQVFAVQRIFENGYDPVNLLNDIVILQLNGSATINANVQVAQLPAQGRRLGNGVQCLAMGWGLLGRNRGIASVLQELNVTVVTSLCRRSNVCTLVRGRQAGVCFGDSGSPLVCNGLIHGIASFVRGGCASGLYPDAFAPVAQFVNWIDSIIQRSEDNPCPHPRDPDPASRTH
Description: (§1) Enzymes and their substrates, listed below, were obtained from Calbiochem.
(§2) Enzyme and substrate concentrations were chosen to obtain pseudo first order conditions for the entire timecourse, with uninhibited enzyme maintaining a constant rate of product formation for longer than the fifteen minute sampling time.
(§3) Additional compounds within the scope of the invention were evaluated using the progress curve method of Stein et al. to determine the kinetic constants kon, koff, as well as the pKi and relative selectivity for HLE over other serine proteases.

[2] = molecular target: T2, Trypsin (bovine pancreatic) (Bos taurus, UniProt P00760); assay: Inhibition of trypsin, progress curve method (Bz-Arg-pNA substrate); settings: for kinact/KI: pH 7.5, read-out: kobs /[I] Enzyme; for kobs /[I] HLE / kobs /[I] Enzyme: relative selectivity, HLE over Trypsin
T2 construct: purchased Calbiochem
T2 sequence (P00760 24-246): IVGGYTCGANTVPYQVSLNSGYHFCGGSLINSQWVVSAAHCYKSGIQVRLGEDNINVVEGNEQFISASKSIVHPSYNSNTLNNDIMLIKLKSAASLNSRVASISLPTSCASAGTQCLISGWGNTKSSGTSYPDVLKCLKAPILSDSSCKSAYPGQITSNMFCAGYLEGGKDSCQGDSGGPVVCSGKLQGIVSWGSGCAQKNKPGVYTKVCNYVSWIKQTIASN
Description: as §1, §2, §3

[3] = molecular target: T3, Cathepsin-G (human neutrophil) (Homo sapiens, UniProt P08311); assay: Inhibition of cathepsin G, progress curve method (Suc-Ala-Ala-Pro-Phe-pNA substrate); settings: for kinact/KI: pH 6.5, read-out: kobs /[I] Enzyme; for kobs /[I] HLE / kobs /[I] Enzyme: relative selectivity, HLE over Cathepsin G
T3 construct: purchased Calbiochem
T3 sequence (P08311 21-255): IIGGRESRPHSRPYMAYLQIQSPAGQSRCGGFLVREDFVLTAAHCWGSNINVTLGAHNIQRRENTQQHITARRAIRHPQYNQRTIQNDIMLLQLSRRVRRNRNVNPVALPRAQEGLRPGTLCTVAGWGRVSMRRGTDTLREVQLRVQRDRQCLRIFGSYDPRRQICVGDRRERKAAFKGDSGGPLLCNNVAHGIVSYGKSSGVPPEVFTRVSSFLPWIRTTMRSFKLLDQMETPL
Description: as §1
Cathepsin-G (human neutrophil
Suc--Ala--Ala--Pro--Phe--
as §2, §3

[4] = molecular target: T4, α Chymotrypsin (bovine pancreatic) (Bos taurus, UniProt P00766); assay: Inhibition of chymotrypsin, progress curve method (Suc-Gly-Gly-Phe-pNA substrate); settings: for kinact/KI: pH 7.5, read-out: kobs /[I] Enzyme; for kobs /[I] HLE / kobs /[I] Enzyme: relative selectivity, HLE over Chymotrypsin
T4 construct: purchased Calbiochem
Description: as §1
Suc--Gly--Gly--Phe--pNA
as §2, §3

[5] = molecular target: T5, Elastase (porcine pancreatic) (PPE) (Sus scrofa, UniProt P00772); assay: Inhibition of porcine pancreatic elastase (PPE), progress curve method (Suc-Ala-Ala-Ala-pNA substrate); settings: for kinact/KI: pH 7.5, read-out: kobs /[I] Enzyme; for kobs /[I] HLE / kobs /[I] Enzyme: relative selectivity, HLE over PPE
T5 construct: purchased Calbiochem
Description: as §1, §2, §3

T5 sequence (P00772 27-266): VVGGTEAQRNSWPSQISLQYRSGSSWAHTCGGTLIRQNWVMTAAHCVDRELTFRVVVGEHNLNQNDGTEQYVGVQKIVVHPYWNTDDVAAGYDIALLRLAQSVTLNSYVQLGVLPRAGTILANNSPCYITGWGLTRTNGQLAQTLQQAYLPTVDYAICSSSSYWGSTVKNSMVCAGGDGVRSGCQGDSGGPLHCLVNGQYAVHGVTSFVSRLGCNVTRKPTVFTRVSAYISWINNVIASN

Row | Structure (SMILES) | pKi ([1]; HLE) | koff ([1]; pH 6.5, HLE) [s⁻¹] | kon ([1]; pH 6.5, HLE) [M⁻¹ s⁻¹] | kon ([1]; HLE) | kinact/KI [2] [M⁻¹ s⁻¹] | kobs /[I] HLE / kobs /[I] Enzyme [2] | kinact/KI [3] [M⁻¹ s⁻¹] | kobs /[I] HLE / kobs /[I] Enzyme [3] | koff ([1]; HLE) [s⁻¹] | kinact/KI [1] [M⁻¹ s⁻¹] | kobs /[I] HLE / kobs /[I] Enzyme [1] | kinact/KI [4] [M⁻¹ s⁻¹] | kobs /[I] HLE / kobs /[I] Enzyme [4] | kinact/KI [5] [M⁻¹ s⁻¹] | kobs /[I] HLE / kobs /[I] Enzyme [5]
1 | CCOc1nc2ccc(N)c(C)c2c(=O)o1 | 10.84 | 2.3e-05 | 750000 | – | – | – | – | – | – | – | – | – | – | – | –
2 | CCOc1nc2ccc(C(C)NC(=O)[C@@H](NC(=O)OC(C)(C)C)C(C)C)c(C)c2c(=O)o1 (single isomer, unassigned) [7 Isomer A] | 10.23 | 1.8e-05 | – | 304,000 M^-1 sec^-1 | – | – | – | – | – | – | – | – | – | – | –
3 | CCOc1nc2ccc(C(C)NC(=O)[C@@H](NC(=O)OC(C)(C)C)C(C)C)c(C)c2c(=O)o1 (single isomer, unassigned) [7 Isomer B] | 10.84 | – | – | 1,100,000 M^-1 sec^-1 | 1550 | 710 | 967 | 1140 | 0.000016 | 1.1e+06 | 1 | 2570 | 430 | 967 | 1140
4 | CCOc1nc2ccc(NC(=O)CCNC(=O)OC(C)(C)C)c(C)c2c(=O)o1 [Example 2, 6-(N-tert-butyloxycarbonyl-β-alanyl)amino-5-methyl-2-ethoxy-4H-3,1-benzoxazin-4-one] | 8.96 | 0.000404 | 365000 | – | 200 | 1830 | 460 | 790 | – | 365000 | 1 | 3500 | 100 | 2860 | 130
5 | CCOc1nc2ccc(NC(=O)CCN(C)C(=O)OC(C)(C)C)c(C)c2c(=O)o1 [Example 3, 6-(N-tert-butyloxycarbonyl-N-methyl-β-alanyl)-amino-5-methyl-2-ethoxy-3,1-benzoxazin-4-one] | 8.88 | 0.00042 | 320000 | – | – | – | – | – | – | – | – | – | – | – | –
6 | CCOc1nc2ccc(N)c(CC)c2c(=O)o1 [Example 4] | 10.00 | 4.7e-05 | 470000 | – | – | – | – | – | – | – | – | – | – | – | –
7 | CCOc1nc2ccc(NC(=O)CCN(C)C(=O)OC(C)(C)C)c(CC)c2c(=O)o1 [Example 5, 6-(N-tert-butyloxycarbonyl-N-methyl-β-alanyl)-amino-5-ethyl-2-ethoxy-3,1-benzoxazin-4-one] | 9.97 | 3e-05 | 281000 | – | – | – | – | – | – | – | – | – | – | – | –
8 | CCOc1nc2ccc(NC(=O)CCN(C)S(=O)(=O)c3ccc(C)cc3)c(CC)c2c(=O)o1 [Example 6, 6-(N-4-methylbenzenesulfonyl-N-methyl-β-alanyl)-amino-5-ethyl-2-ethoxy-4H-3,1-benzoxazin-4-one] | 10.03 | 6.9e-05 | 745000 | – | 80 | 9312 | 340 | 2190 | – | 745000 | 1 | 11900 | 60 | 3450 | 220
9 | CCOc1nc2ccc(C(C)NC(=O)[C@H](C)NC(=O)OC(C)(C)C)c(C)c2c(=O)o1 (stereo partly drawn) [Example 8, 6-[1-(N-tert-butyloxycarbonyl-L-alanyl)-aminoethyl]-2-ethyloxy-5-methyl-4H-3,1-benzoxazin-4-one] | 10.48 | 1.7e-05 | 520000 | – | – | – | – | – | – | – | – | – | – | – | –
10 | CCOc1nc2cccc(C)c2c(=O)o1 [positive control, reference compound] | 9.29 | 7.2e-05 | 140000 | – | – | – | – | – | – | – | – | – | – | – | –
